# Laboratory results from ChEMBL document CHEMBL4619724, “Environment-sensitive fluorescent inhibitors of histone deacetylase” (Bioorg Med Chem Lett, 2020).
# Columns and labels:
# Histone deacetylase = assay: Inhibition of HDAC in human HeLa cell extracts assessed as inhibition of substrate deacetylation using Boc-Lys (acetyl)-AMC as substrate by fluorescence based assay
# A549 = assay: Antiproliferative activity against human A549 cells incubated for 24 hrs by CCK8 assay; type: functional, cell-based; settings: A549, 24 h
# MOLT-4 [1] = assay: Antiproliferative activity against human MOLT4 cells incubated for 24 hrs by CCK8 assay; type: functional, cell-based; settings: MOLT-4, 24 h
# MOLT-4 [2] = assay: Induction of apoptosis in human MOLT4 cells assessed as increase in apoptotic cells at 5 uM incubated for 24 hrs by Annexin V and PE staining based flow cytometric analysis relative to control; type: functional
# K562 = assay: Antiproliferative activity against human K562 cells incubated for 24 hrs by CCK8 assay; type: functional, cell-based; settings: K562, 24 h
# PC-3 = assay: Antiproliferative activity against human PC3 cells incubated for 24 hrs by CCK8 assay; type: functional, cell-based; settings: PC-3, 24 h
# [3] = Drug uptake in human MOLT4 cell membrane at 5 uM incubated for 30 mins by DID staining based confocal microscopic method; type: ADME; settings: molt-4, 0.5 h
# [4] = Drug uptake in nucleus in human MOLT4 cells at 5 uM incubated for 30 mins by Hoechst 33342 staining based confocal microscopic method; type: ADME, subcellular; settings: molt-4, 0.5 h
# [5] = Drug uptake in cytoplasm in human MOLT4 cells overexpressing HDAC at 5 uM incubated for 30 mins by fluorescence microscopic method; type: ADME, subcellular; settings: molt-4, 0.5 h
# [6] = Drug uptake in tumor tissue of nude mouse xenografted with human PC3 cells assessed as increase in fluorescence intensity at 10 uM by fluorescence upright microscopic method; type: ADME, tissue-based, Neoplasm, PC-3; settings: in vivo
# [7] = Drug uptake in nude mouse thigh muscles assessed as increase in fluorescence intensity in tissue at 10 uM by fluorescence upright microscopic method; type: ADME, tissue-based, Thigh muscle; settings: in vivo
# [8] = Drug uptake in cytoplasm in human PC3 cells overexpressing HDAC at 5 uM incubated for 30 mins by fluorescence microscopic method; type: ADME, subcellular; settings: pc-3, 0.5 h
# [9] = Drug uptake in tumor tissue of nude mouse xenografted with human PC3 cells assessed as increase in fluorescence intensity in tumor tissue at 10 uM in presence of HDAC inhibitor, SAHA by fluorescence upright microscopic method; type: ADME, tissue-based, Neoplasm, PC-3; settings: in vivo
# [10] = Drug uptake in nude mouse skin assessed as increase in fluorescence intensity in tissue at 10 uM by fluorescence upright microscopic method; type: ADME, tissue-based, Zone of skin; settings: in vivo
# [11] = Drug uptake in cytoplasm in HEK293 cells harboring low HDAC expression at 5 uM incubated for 30 mins by fluorescence microscopic method; type: ADME, subcellular; settings: human, hek293, 0.5 h
IC50 (Histone deacetylase) [µM],IC50 (A549) [µM],IC50 (MOLT-4 [1]) [µM],IC50 (K562) [µM],IC50 (PC-3) [µM],Structure (SMILES),Activity (MOLT-4 [2]) [%],further results
> 100,,,,,CC(C)CC(NC(=O)NCCCCCNc1ccc(S(=O)(=O)N(C)C)c2nonc12)C(=O)NO (configuration not stated),,
,> 100,3.55,15.2,31.2,CN(C)S(=O)(=O)c1ccc(NCCCCCC(=O)NO)c2nonc12,23.3,
7.58,,,,,CN(C)S(=O)(=O)c1ccc(NCCCCCNC(=O)NCC(=O)NO)c2nonc12,,
,> 100,7.84,11,52.6,CN(C)S(=O)(=O)c1ccc(NCCCCCCC(=O)NO)c2nonc12,20.02,Drug uptake [3]: 62.1%; Drug uptake [4]: Not Active; Drug uptake [5]: Active; Drug uptake [6]: Active; Drug uptake [7]: Not Active; Drug uptake [8]: Active; Drug uptake [9]: Not Active; Drug uptake [10]: Not Active; Drug uptake [11]: Not Active
,,,,,O=C(CCCCCCC(=O)Nc1ccccc1)NO [VORINOSTAT],29.58,
